Results: patent US20040171093A1, “Methods for detecting deficient cellular membrane tightly bound magnesium for disease diagnoses” (priority 1999, published 2004)
“And” between values parts separate entries of the source, which are not always exact repeats. Equal entries are not always repeated. “Also recorded” adds a separate entry of the source. Ends that are not written are not given here.

Experiments:
[1] = tested on: magnesium deficient erythrocytes; assay: Promotion of magnesium binding in magnesium depleted erythrocyte membranes (in vitro screen); assay type: cell-based, human; settings: for Magnesium Binding: aged Mg-deficient human erythrocytes incubated in 5 mL medium, 37° C., three hours, peptide amount equimolar to 6 ugm Substance P, quadruplet mean (n) or duplicate values; for measurable binding of magnesium ions to the erythrocyte membrane (in words): uptake in excess of that with KRPG alone; for approximate ratios of binding activities: magnesium uptake in excess of KRPG alone, normal plasma = 1; for activity relative to Substance P in promoting magnesium binding / correcting the MgBD: equal molar amounts tested
Description: In order to identify those substances which promote binding of magnesium ion to plasma membranes (tightly bound magnesium ion) and that ameliorate or correct the magnesium binding defect, a deficit of membrane tightly bound magnesium was created experimentally in erythrocytes without the magnesium binding defect. Human erythrocytes were obtained from blood samples that had been drawn two days previously and kept for varying periods of time at room temperature, or at approximately 5° C. Preferred results were obtained with those samples in which either sodium citrate or sodium heparin was the anticoagulant. The length of time held and time held before moving to room temperature or 5° C is not believed to be critical. Although it was possible to create the MgBD in cells held as above, more reproducible results would be expected if fresh drawn blood were to be used.
The following procedure was employed to generate a deficit of plasma membrane tightly bound magnesium ion in the erythrocytes. Art recognized adaptations of this procedure can be used for generation of a deficit in other somatic cells, such as from urine or buccal cells. Samples of blood described above were kept at room temperature overnight and then pooled in a beaker placed in crushed ice and the blood was stirred slowly to collect any fibrin that may have formed. The blood was then centrifuged (600×g, 15 minutes) at 5° C. and the plasma layer removed by aspiration. Residual plasma was removed from the cells by suspending them twice in equal volumes of cold normal saline and then twice in equal volumes of cold Alsever's solution (trisodium citrate 32.5 mM, citric acid 2.7mM, D-glucose 114 mM, NaCl 137 mM, pH 6.1). Finally, the washed cells were suspended again in an equal volume of the same Alsever's solution to which approximately 1.25 mg/ml of sodium deoxycholate was added. This suspension was filtered through cheese cloth and kept at 4° C. with gently mixing once each day. Although the Alsever's plus sodium deoxycholate solution is a preferred example of a holding solution, any cell stabilizing buffer plus sodium deoxycholate may be utilized in the practice of the invention.
The concentration of magnesium ion tightly bound to the erythrocyte membranes was determined by using 5 mL portions of the approximately two day old blood sample and the stored erythrocyte suspension. After these portions were centrifuged as above and the supernatant fluids aspirated, the residues of cells were suspended four times in 15 mL portions of cold hemolyzing buffer (Tris Tris HCl 5 mM, sucrose 14 mM, pH 7.4) and centrifuged (15,000×g, 15 minutes). The supernatant fluids were removed by gentle aspiration. The decanting procedure was repeated as necessary to remove all of the dark red residue (Example 1). The penultimate residue was resuspended by gently pouring the hemolyzing buffer onto the residue and decanting the readily suspended cell membranes from the small, dark red, dense residue which adhered to the centrifuge tube. The final, nearly colorless residue of membranes was transferred and brought to a total volume of 25 mL in a volumetric flask using the hemolyzing buffer. These preparations of erythrocyte membranes were stored at 4° C. until the total protein contents were determined by the Bicinchoninic Acid procedure and the total magnesium contents determined by atomic absorption spectroscopy. From these values the concentrations of tightly bound magnesium in the cell membranes were expressed as nanograms of magnesium per 0.50 mg of membrane protein. This determination of the magnesium binding was repeated each day or so until the level of binding first ceased to decrease.
Preparations of aged erythrocytes in which the MgBD has been developed were used as soon as possible in incubations with normal blood plasma, and other magnesium containing fluids, in search of substances which could correct the MgBD (Example 7). […]

normotensive subjects = settings: Qu and Stuesse, 1990; cited from earlier work
SS/Jr rats [2] = assay: Systolic blood pressure after i.v. tetrapeptide, tail-cuff method, hypertensive rats; assay type: in vivo, rat
Description: (§1) In this procedure the systolic blood pressure was measured in conscious animals by using the photoelectric, tail-cuff, compression method as follows. The animal was placed in an incubator at 40° for twenty minutes in order to elevate its body temperature. The cuff, which was placed around the tail, included sensor which provided the pressure signal which was recorded onto a chart. After the pre-injection pressure was recorded, the animal was immediately injected through the tail vein with 168 uL of a freshly prepared solution of the tetrapeptide (SEQ ID NO:2) in normal saline.
(§2) In the initial experiments, the blood pressure was recorded at 5, 10, 30, 60 and 300 minutes after the administration of the tetrapeptide. There was no further decrease in the blood pressure after 10 minutes and the blood pressure returned to the pre-injection level within 60 minutes. Therefore, in further experiments, the blood pressure of each animal was recorded 10 minutes after the injection of the tetrapeptide.

Sprague-Dawley rats [3] = assay: Systolic blood pressure after i.v. peptide, tail-cuff method, normotensive control rats; assay type: in vivo, rat
Description: as §1, §2

SS/Jr rats [4] = assay: Tightly bound magnesium in erythrocyte membranes after i.v. tetrapeptide, hypertensive rats; assay type: in vivo, rat; settings: intravenous administration
Description: (§3) The rats were allowed to rest for one day and then one-half of the SS/Jr and one-half of the Sprague-Dawley rats were injected as above with 3.0 ugm/kg of the tetrapeptide (SEQ ID NO:2). All of the rats were sacrificed by decapitation 30 minutes later and the blood from each rat was collected in a centrifuge tube containing sufficient heparin to prevent clotting. The blood samples were centrifuged (1,000×g, 20 minutes) at 5° C. and the individual plasma layers were removed and frozen. The residues of erythrocytes were suspended three times in cold, normal saline and then were hemolyzed by the addition of 15 mL of cold hemolyzing buffer (10 mM Tris Tris HCl, pH 7.4). This buffer was then used in the isolation of the erythrocyte membranes from these hemolysates and in the determination of their total magnesium and protein contents as described above.

Sprague-Dawley rats [5] = assay: Tightly bound magnesium in erythrocyte membranes after i.v. tetrapeptide, normotensive control rats; assay type: in vivo, rat; settings: intravenous administration
Description: as §3

SS/Jr rats [6] = assay: Plasma glucose (anthrone method) after i.v. tetrapeptide, SS/Jr rats; assay type: in vivo, rat; settings: 3.0 ugm/kg i.v., 30 minutes
Description: as §3
(§4) The glucose concentrations in the reserved plasma samples were determined by the anthrone method (Rendina, 1971). The concentrations in the injected SS/Jr rats were not different from those of the SS/Jr rats which were not injected with the tetrapeptide. This was also the case with the Sprague-Dawley control rats. Thus, the values of the SS/Jr rats were combined and compared with the combined, control values of the Sprague-Dawley rats as follows: 149.2±7.5 (15) vs. 100.7±11.2 (4) mg/100 mL., P<0.01. […]

Sprague-Dawley rats [7] = assay: Plasma glucose (anthrone method) after i.v. tetrapeptide, Sprague-Dawley rats; assay type: in vivo, rat; settings: 3.0 ugm/kg i.v., 30 minutes
Description: as §3, §4

[8] = tested on: erythrocytes from essential hypertensive patients; assay: Remediation of magnesium binding defect in vitro, erythrocytes from essential hypertensive patients; assay type: cell-based, human; settings: incubated for 3 hrs. at 37° C.
Description: The effect of the tetrapeptide (SEQ ID NO:2) and pentapeptide (SEQ ID NO:1) on the binding of magnesium by the erythrocyte membrane was ascertained by measuring the magnesium contents of ghosts after the erythrocytes from essential hypertensive patients and normal controls were incubated with one or both of the peptides. For this purpose, two 10 ml samples of heparinized blood from essential hypertensive subjects were utilized. After the plasma was separated from the erythrocytes, the erythrocytes were washed twice with 10 ml of cold erythrocyte wash and the peptides were then added to the erythrocytes from the hypertensive subjects and the mixtures were incubated for 3 hrs. at 37° C., chilled on ice and the erythrocyte ghosts were prepared and analyzed for magnesium and protein as described in Example 1.

For “1-9 Substance P: commercial preparation of amidated peptide derived from the N-terminal region of Substance P (RPKPQQFFG-NH2; UniProt P20366 58-66, looked up, fragment) [reference compound]”, the “Magnesium Binding” value [1] was 500 Nanograms of magnesium per 0.50 mg of membrane protein and 490 Nanograms of magnesium per 0.50 mg of membrane protein and the “measurable binding of magnesium ions to the erythrocyte membrane (in words)” value (from here on “measurable binding of magnesium ions”) [1] was “no measurable activity”.

With “9-11 Substance P: commercial preparation of amidated peptide derived from the C-terminal region of Substance P (Gly-Leu-Met-NH2; UniProt P20366 66-68, looked up, fragment) [reference compound]” the “Magnesium Binding” value [1] was 546 Nanograms of magnesium per 0.50 mg of membrane protein and 510 Nanograms of magnesium per 0.50 mg of membrane protein and the “measurable binding of magnesium ions” value [1] was “no measurable activity”.

For “Arg-Pro-Lys-Pro-Gln-Gln-Phe-Phe-Gly-Leu-Met-NH2 [Substance P, reference compound]”, the “approximate ratios of binding activities” value [1] is listed as ~1.1, the “measurable binding of magnesium ions” value [1] is listed as “promoted measurable binding” and the “effect of intravenously injected Substance P on blood pressure” value (normotensive subjects) is listed as “the reduction in blood pressure resulted in lower than normal values”.

With “Phe-Gly-Leu-Met-NH2 (FGLM-NH2; listed as Homo sapiens) [tetrapeptide]” the “Magnesium Binding” value ([1]; listed as 8-11 Substance P) was 968 Nanograms of magnesium per 0.50 mg of membrane protein and 954 Nanograms of magnesium per 0.50 mg of membrane protein, the “activity relative to Substance P in promoting magnesium binding / correcting the MgBD” value [1] was “about four times as active as Substance P; also recorded: significantly more active than Substance P; also recorded: several fold more active than Substance P” and the “approximate ratios of binding activities” value [1] was ~4.6. The “measurable binding of magnesium ions” value [1] was “promoted measurable binding”, the “effect on blood pressure of hypertensive rats (in words)” value (SS/Jr rats [2]; SS/Jr rats, intravenous administration) was “fallen to control values; also recorded: corrected; also recorded: reduced the hypertensive blood pressure of the SS/Jr rats to the normal blood pressure of their controls; also recorded: reduced its systolic blood pressure from an elevated value of 210 mm Hg to the control value” and the “time for blood pressure to fall to control values / no further decrease” value (SS/Jr rats [2]; after i.v. injection) was ≤ 10 min. The “time for blood pressure to return to the pre-injection level” value (SS/Jr rats [2]; after i.v. injection) was ≤ 60 min, the “effect on blood pressure of normotensive rats (in words)” value (Sprague-Dawley rats [3]) was “unaffected; also recorded: had no influence; also recorded: did not affect the blood pressures; also recorded: had no effect on systolic blood pressure” and the “correction of the magnesium binding defect in erythrocytes (in words)” value (SS/Jr rats [4]) was “corrected; also recorded: corrects the magnesium binding defect”. The “effect on erythrocyte magnesium binding of control rats (in words)” value (Sprague-Dawley rats [5]) was “unaffected; also recorded: had no influence”, the “plasma glucose concentration, injected versus not injected” value (SS/Jr rats [6]) was “not different” and the “plasma glucose concentration, injected versus not injected” value (Sprague-Dawley rats [7]) was “not different”. The “binding of magnesium to erythrocyte membranes of hypertensive subjects after incubation (in words)” value [8] was “returned to normal”.

For “Phe-Phe-Gly-Leu-Met-NH2 (FFGLM-NH2; listed as Homo sapiens) [pentapeptide]”, the “Magnesium Binding” value ([1]; listed as 7-11 Substance P) was 886 Nanograms of magnesium per 0.50 mg of membrane protein and 866 Nanograms of magnesium per 0.50 mg of membrane protein, the “activity relative to Substance P in promoting magnesium binding / correcting the MgBD” value [1] was “about four times as active as Substance P; also recorded: significantly more active than Substance P; also recorded: several fold more active than Substance P” and the “approximate ratios of binding activities” value [1] was ~3.7. For the same substance, the “measurable binding of magnesium ions” value [1] was “promoted measurable binding”, the “effect on blood pressure of normotensive rats (in words)” value (Sprague-Dawley rats [3]) was “had no effect on systolic blood pressure” and the “binding of magnesium to erythrocyte membranes of hypertensive subjects after incubation (in words)” value [8] was “returned to normal”.
